The test system of data set [1] is A/Hong Kong/8/68 (H3N2, HK). Briefly: microbe, parasite or virus in culture. The conditions noted are these: Influenza A virus, H3N2, MDCK, 72 h, read-out: EC50 HK.
For data set [2], the system named is B/Lee/40 (Lee). The conditions noted are these: for S.I. (CC50/EC50) Lee: Table 2.
In data set [3] the test system is A/Puerto Rico/8/34 (H1N1, PR8). Briefly: microbe, parasite or virus in culture. Particulars: Influenza A virus, MDCK, 72 h, read-out: EC50 PR8.
Data set [4] has as its system A/Hong Kong/8/68 (H3N2, HK). The conditions noted are these: for S.I. (CC50/EC50) HK: Table 2; for EC50: read-out: EC50 HK.
Data set [5] has as its system MDCK cells. Nature of the data set: Cell viability (MTT) of mock-infected MDCK cells. The conditions noted are these: 300 μg/mL.
Data set [6] can be described thus: Cell viability (MTT) of mock-infected MDCK cells. Particulars: dog, mock-infected MDCK cells.
For data set [7], the system named is B/Lee/40 (Lee). Nature of the data set: microbe, parasite or virus in culture. Particulars: Influenza B virus, MDCK, 72 h, read-out: EC50 Lee.
Data set [8] concerns influenza viruses PR8, HK and Lee. Nature of the data set: CPE inhibition assay, results stated over all strains. The class given is cell-based, influenza A and B viruses. The conditions noted are these: for EC50: Influenza A virus, PR8, range over the strains (and compounds named).
The next data set can be described thus: in vitro. The conditions noted are these: dog.
The next data set concerns PR8 virus (viral NP). In kind it is cell-based, influenza A virus.
Data set [9] relates to A/Puerto Rico/8/34 (H1N1, PR8). The conditions noted are these: Table 2.
For a further data set, the system named is PR8. Briefly: Time-of-addition plaque assay. In kind it is cell-based, influenza A virus.
For data set [10], the system named is influenza viruses PR8, HK and Lee. Particulars: for inhibition of plaque formation: MOI 0.001, 3 days, crystal violet.
Protocol: MDCK cells seeded in 48-well plates were infected with the influenza viruses at an MOI of 0.001 for 1 h at 33 °C (PR8) or 35 °C (HK and Lee). Test compounds and reference antiviral compounds were serially diluted in overlay medium [MEM containing 0.5% carboxymethylcellulose (CMC; Sigma) and 2 μg/mL TPCK-trypsin]. After washing with PBS, the cells were treated with the compounds in the overlay medium for 3 days at the temperature used for virus infection. Viral plaques were counted by staining with crystal violet [20].
Data set [11] deals with MDCK cells. The conditions noted are these: dog, 3 days, 300 μg/mL.
The mark [12] stands for this setting: CPE inhibition assay, PR8, HK and Lee.

In brackets after ≈: the same amount, converted by molar mass. Where two headings read alike, the source gives them in different places.

What is called EC50 is the concentration needed to bring the measured effect to its halfway point.

In the case of `O=c1c(O)c(-c2ccc(O)c(O)c2)oc2cc(O)cc(O)c12` [PC1, Quercetin], the values for the 50% effective concentration (EC50) (in data set [1]; in [3]; in the data set on B/Lee/40 (Lee) [7]) were 13.1 µg/mL, 12.6 µg/mL (≈ 41.7 µM) and 15 µg/mL, respectively. Further, the “S.I. (CC50/EC50) Lee” value in the data set on B/Lee/40 (Lee) [2] is on record as more than 20.0. In [4], the “S.I. (CC50/EC50) HK” value was more than 22.9. For the same molecule, the “cytotoxicity to MDCK cells at the highest concentration” value in the data set on MDCK cells [5] is recorded as “without cytotoxicity”. Further, the CC50 at 3 days in data set [6] was more than 300 µg/mL.
On to `NC(=O)c1ncn([C@@H]2O[C@H](CO)[C@@H](O)[C@H]2O)n1` [RBV, ribavirin, reference compound], for which, in [8], the “anti-influenza activity in words” value is reported as “efficiently inhibited the replication of all viral strains tested”. In addition, the EC50 in data set [1] stood at 20.5 µM; in the data set with B/Lee/40 (Lee) [2] (read-out: EC50 Lee), 17 µM; in data set [4] it was 15.5 µM; in the data set on B/Lee/40 (Lee) [7], 26.6 µM.
Turning to `CCC(CC)O[C@@H]1C=C(C(=O)O)C[C@H](N)[C@H]1NC(C)=O` [OSV-C, oseltamivir carboxylate, reference compound], the “anti-influenza activity in words” value in data set [8] (setting [12]) is “efficiently inhibited the replication of all viral strains tested”. The molecule further gave a CC50 at 3 days in “in vitro” of more than 100 µM. The EC50 is 0.005 µM in [1] and less than 0.005 µM in data set [4].
The molecule `O=C(O)c1cc(O)c(O)c(O)c1` [PC3, Gallic acid] returned a CC50 in “in vitro” of 111 µg/mL (≈ 653 µM). In [1], the EC50 is 17.5 µg/mL.
For `COC(=O)c1ccc(O)c(O)c1` [PC2, Protocatechuic acid methyl ester], the CC50 at 3 days in the data set “in vitro” was 24.1 µg/mL. The concentration giving a half-maximal response (EC50) in data set [1] is more than 24.1 µg/mL; in data set [3], more than 24.1 µg/mL; in the data set with B/Lee/40 (Lee) [7], 11.1 µg/mL. For the same molecule, the “S.I. (CC50/EC50) Lee” value in the data set with B/Lee/40 (Lee) [2] was 2.2.
On to `O=C(O)/C=C/c1ccc(O)c(O)c1` [PC8, Caffeic acid], for which the EC50 in [8] (CPE inhibition assay) is 14.7 to 81.1 µg/mL (≈ 81.6 to 450 µM); in data set [1], 32.1 µg/mL; in data set [3], 37.8 µg/mL (≈ 210 µM); in the data set with B/Lee/40 (Lee) [7], 14.7 µg/mL. Further, the “effect on viral NP production/localization” value with PR8 virus (viral NP) was “did not affect NP signal intensity or its localization”. In addition, the “S.I. (CC50/EC50) PR8” value in data set [9] is more than 7.9. Also, the “S.I. (CC50/EC50) Lee” value in the data set on B/Lee/40 (Lee) [2] was more than 20.4. Besides, in the data set on PR8, the “effect on plaques, co-treatment” value is recorded as “barely showed the efficacy at the maximum concentration”. The “effect on plaques, post-treatment” value with PR8 is listed as “no significant antiviral activity”. Further, in the data set with PR8, the “effect on plaques, pre-treatment” value is given as “no significant antiviral activity”. Besides, in [10], the “inhibition of plaque formation” value is “inhibited plaque formation of influenza A and B viruses in a dose-dependent manner”. Further, the “S.I. (CC50/EC50) HK” value in data set [4] is more than 9.4. Besides, the “cytotoxicity to MDCK cells at the highest concentration” value in the data set with MDCK cells [5] is on record as “without cytotoxicity”. Besides, the CC50 at 3 days in [6] is more than 300 µg/mL.
Turning to `COC(=O)c1cc(O)c(O)c(O)c1` [PC7, Methyl gallate], the EC50 in data set [8] (CPE inhibition assay) was 14.7 to 81.1 µg/mL (≈ 79.8 to 440 µM); in data set [1] it was 17.1 µg/mL; in [3], 18.1 µg/mL (≈ 98.3 µM); in the data set on B/Lee/40 (Lee) [7] it was 19.2 µg/mL. Also, in the data set with PR8 virus (viral NP), the “effect on viral NP production/localization” value is listed as “inhibit the early steps”. This molecule also had a CC50 at 3 days in the data set “in vitro” of more than 300 µg/mL. For the same molecule, the “S.I. (CC50/EC50) PR8” value in [9] was more than 16.6. In the data set on B/Lee/40 (Lee) [2], the “S.I. (CC50/EC50) Lee” value is listed as more than 15.6. For the same molecule, the “effect on plaques, pre-treatment” value in the data set on PR8 is “no inhibition”. For the same molecule, the “plaque reduction, co-treatment” value in the data set with PR8 was “about 35%”. The “reduction of viral infectivity, post-treatment” value with PR8 is 15%. Further, the “cytotoxicity seen as faint crystal violet background” value in data set [10] (MDCK cells, concentrations higher than 33 μg/mL) was “marginal cytotoxicity”. In addition, the “inhibition of plaque formation” value in [10] is “inhibited plaque formation of influenza A and B viruses in a dose-dependent manner”. Moreover, in the data set with MDCK cells [11], the “reduction of cell viability” value worked out at 49%. The “S.I. (CC50/EC50) HK” value in data set [4] is listed as more than 17.5.
As to `CC[C@H](CC[C@@H](C)[C@H]1CC[C@H]2[C@@H]3CC=C4C[C@@H](O)CC[C@]4(C)[C@H]3CC[C@]12C)C(C)C` [PC6, β-Sitosterol], the “anti-influenza activity in words” value in data set [8] (setting [12]) is “marginal or no anti-influenza activity”. Besides, in “in vitro”, the CC50 was 300 µg/mL (≈ 723 µM). In addition, the EC50 is 300 µg/mL in data set [1], 282 µg/mL (≈ 679 µM) in data set [3] and more than 300 µg/mL in the data set with B/Lee/40 (Lee) [7]. Also, the “S.I. (CC50/EC50) PR8” value in [9] is 1.1. Moreover, in data set [4], the “S.I. (CC50/EC50) HK” value was 1.0.
For the molecule `O=c1oc2c(O)c(O)cc3c(=O)oc4c(O)c(O)cc1c4c23` [PC5, Ellagic acid], the EC50 in data set [8] (CPE inhibition assay) is 14.7 to 81.1 µg/mL (≈ 48.6 to 268 µM); in data set [1], 62.4 µg/mL; in data set [3] it was 81.1 µg/mL (≈ 268 µM); in the data set with B/Lee/40 (Lee) [7], 79.2 µg/mL. Also, the “effect on viral NP production/localization” value in the data set with PR8 virus (viral NP) is on record as “inhibit the early steps”. Also, in data set [9], the “S.I. (CC50/EC50) PR8” value is given as more than 3.7. For the same molecule, in the data set on B/Lee/40 (Lee) [2], the “S.I. (CC50/EC50) Lee” value was more than 3.8. The “effect on plaques, co-treatment” value in the data set on PR8 is recorded as “plaque reduction was more distinct”. Also, in the data set with PR8, the “effect on plaques, post-treatment” value is “reduced viral plaque titers”. In the data set with PR8, the “effect on plaques, pre-treatment” value is reported as “reduced viral plaque titers”. Further, in data set [10], the “inhibition of plaque formation” value is “inhibited plaque formation of influenza A and B viruses in a dose-dependent manner”. Besides, the “S.I. (CC50/EC50) HK” value in [4] is more than 4.8. Further, the CC50 at 3 days in [6] is more than 300 µg/mL.

(Values after publication PMC5361735, “Characterization and mechanisms of anti-influenza virus metabolites isolated from the Vietnamese medicinal plant Polygonum chinense” (BMC Complementary and Alternative Medicine, 2017).)
